Experiments:
[1] = biological target: 5'(3')-deoxyribonucleotidase, mitochondrial (Homo sapiens, UniProt Q9NPB1); experiment: Inhibition of N-terminal hexaHis-tagged human mitochondrial 5'(3')-deoxynucleotidase using dUMP as substrate
[2] = species on record: Homo sapiens; experiment: Selectivity ratio of Ki for N-terminal hexaHis-tagged human cytosolic 5'(3')-deoxynucleotidase to Ki for N-terminal hexaHis-tagged human mitochondrial 5'(3')-deoxynucleotidase
[3] = biological target: 5'(3')-deoxyribonucleotidase, cytosolic type (Homo sapiens, UniProt Q8TCD5); experiment: Inhibition of N-terminal hexaHis-tagged human cytosolic 5'(3')-deoxynucleotidase using dUMP as substrate
5'(3')-deoxyribonucleotidase, cytosolic type, sequence (Q8TCD5 whole entry): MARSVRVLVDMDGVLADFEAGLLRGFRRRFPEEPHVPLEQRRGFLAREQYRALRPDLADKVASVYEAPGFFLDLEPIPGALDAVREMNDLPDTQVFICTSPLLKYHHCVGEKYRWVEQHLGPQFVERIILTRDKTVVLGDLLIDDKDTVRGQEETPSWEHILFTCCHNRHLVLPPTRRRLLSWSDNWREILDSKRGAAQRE

5'(3')-deoxyribonucleotidase, mitochondrial, sequence (Q9NPB1 whole entry): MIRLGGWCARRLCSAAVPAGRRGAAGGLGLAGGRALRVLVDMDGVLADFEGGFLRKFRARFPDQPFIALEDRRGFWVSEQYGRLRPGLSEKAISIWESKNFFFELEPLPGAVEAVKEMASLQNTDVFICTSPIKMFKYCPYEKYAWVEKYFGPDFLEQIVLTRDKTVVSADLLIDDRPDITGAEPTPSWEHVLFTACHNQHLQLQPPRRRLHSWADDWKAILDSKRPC

## O=c1[nH]c(=O)n([C@H]2C[C@H]3O[C@](c4ccccc4)(P(=O)(O)O)OC[C@H]3O2)cc1/C=C/P(=O)(O)O
[1]
  Ki: 0.128 µM
[2]
  Ratio Ki: 20
[3]
  Ki: 21.7 µM
